Measured values from patent US20260053801A1, “METHOD FOR TREATING AUTOPHAGY DEPENDENT CANCER WITH A PIKFYVE INHIBITOR” (The Regents of the University of Michigan, priority 2023, published 2026).
Entries after “also recorded” stand apart in the source; their conditions may differ.

Key:
[1] = system: autophagic flux in 7940B cells; assay: GFP-LC3-RFP-LC3ΔG autophagic flux probe assay in 7940B cells; type: cell-based, mouse; conditions: for basal autophagic flux / autophagic flux induced by torin-1: apilimod 100 nM, ESK981 1000 nM, chloroquine 50 μM; for autophagic flux induced by torin-1: torin-1 100 nM
Excerpt: (§1) Generation of the autophagic flux probe in 7940B, Panc 04.03, and iKRAS was done according to the original author's instructions. Kaizuka, T. et al., Mol Cell 64, 835-849, doi:10.1016/j.molcel.2016.09.037 (2016). Briefly, cells were infected with pMRX-IP-GFP-LC3-RFP-LC3DG, which was a gift from Noboru Mizushima (Addgene plasmid #84572; http://n2t.net/addgene:84572; RRID:Addgene_84572). Following puromycin selection, single-cell clones were expanded and genotyped to ensure the absence of homologous recombination between two LC3 fragments during retrovirus integration.
(§2) 15,000 cells were seeded in 96-well plates. After overnight incubation, cells were treated with the indicated compounds for 24 hours. […] Fluorescent signals were detected using the Infinite M1000 Pro plate reader (Tecan).

[2] = system: autophagic flux in Panc 04.03 cells; assay: GFP-LC3-RFP-LC3ΔG autophagic flux probe assay in Panc 04.03 cells; type: cell-based, human; conditions: for autophagic flux induced by torin-1: 4-hour pre-treatment, then torin-1 100 nM 24 hours; for autophagic flux induced by torin-1 / basal autophagic flux: apilimod 300 nM, ESK981 1000 nM, chloroquine
Excerpt: as §1, §2

[3] = system: autophagic flux in iKras cells; assay: Autophagic flux probe assay in iKRAS 9805 cells; type: cell-based; conditions: doxycycline withdrawal; apilimod 100 nM, ESK981 1000 nM, chloroquine 10 μM, 24 hours
Excerpt: as §1, §2

[4] = system: 7 human and mouse PDAC cell lines; conditions: 7 days, CellTiter-Glo
Procedure: Cells were plated into 96-well plates and incubated overnight at 37° C. in 5% CO2. The following day, a serial dilution of the indicated compounds was prepared in culture medium and added to the plate. The cells were then further incubated for 5 days (experiments involving MRTX1133 or trametinib) or 7 days (all other experiments). Subsequently, the CellTiter-Glo assay (Promega), was then performed according to the manufacturer's instructions. The luminescence signal was acquired using an Infinite M1000 Pro plate reader (Tecan), and the data were analyzed using GraphPad Prism 10 (GraphPad Software Inc.).

7940B cells [5] = assay: Real-time oxygen consumption rate (Resipher) in 7940B cells; type: cell-based, mouse; conditions: apilimod 100 nM, ESK981 1000 nM, bafilomycin 100 nM, chloroquine 100 μM
Procedure: Real-time monitoring of basal oxygen consumption rate was performed using a Resipher (Lucid Scientific). […] Immediately following treatment with an additional 50 μl of medium (for a total of 100 μl), OCR monitoring was started by placing the Resipher device on the cells, which was incubated at 37° C. and 5% CO2 for 24 hours.

cell surface MHC-I = assay: Flow cytometry of cell surface MHC-I in mouse cancer lines; type: cell-based; conditions: pancreatic (KPC1361); extended to 4T1, B16-F10, LLC
mouse PIKfyve protein = target: T1, mouse PIKfyve protein (Mus musculus, UniProt Q9Z1T6); assay: Cellular Thermal Shift Assay (CETSA) in 7940B cells; type: binding; conditions: 1000 nM, 2 hours
T1 construct: endogenous in cells; host or cells: 7940B (murine KPC pancreatic cancer cell line)
T1 sequence (Q9Z1T6 whole entry): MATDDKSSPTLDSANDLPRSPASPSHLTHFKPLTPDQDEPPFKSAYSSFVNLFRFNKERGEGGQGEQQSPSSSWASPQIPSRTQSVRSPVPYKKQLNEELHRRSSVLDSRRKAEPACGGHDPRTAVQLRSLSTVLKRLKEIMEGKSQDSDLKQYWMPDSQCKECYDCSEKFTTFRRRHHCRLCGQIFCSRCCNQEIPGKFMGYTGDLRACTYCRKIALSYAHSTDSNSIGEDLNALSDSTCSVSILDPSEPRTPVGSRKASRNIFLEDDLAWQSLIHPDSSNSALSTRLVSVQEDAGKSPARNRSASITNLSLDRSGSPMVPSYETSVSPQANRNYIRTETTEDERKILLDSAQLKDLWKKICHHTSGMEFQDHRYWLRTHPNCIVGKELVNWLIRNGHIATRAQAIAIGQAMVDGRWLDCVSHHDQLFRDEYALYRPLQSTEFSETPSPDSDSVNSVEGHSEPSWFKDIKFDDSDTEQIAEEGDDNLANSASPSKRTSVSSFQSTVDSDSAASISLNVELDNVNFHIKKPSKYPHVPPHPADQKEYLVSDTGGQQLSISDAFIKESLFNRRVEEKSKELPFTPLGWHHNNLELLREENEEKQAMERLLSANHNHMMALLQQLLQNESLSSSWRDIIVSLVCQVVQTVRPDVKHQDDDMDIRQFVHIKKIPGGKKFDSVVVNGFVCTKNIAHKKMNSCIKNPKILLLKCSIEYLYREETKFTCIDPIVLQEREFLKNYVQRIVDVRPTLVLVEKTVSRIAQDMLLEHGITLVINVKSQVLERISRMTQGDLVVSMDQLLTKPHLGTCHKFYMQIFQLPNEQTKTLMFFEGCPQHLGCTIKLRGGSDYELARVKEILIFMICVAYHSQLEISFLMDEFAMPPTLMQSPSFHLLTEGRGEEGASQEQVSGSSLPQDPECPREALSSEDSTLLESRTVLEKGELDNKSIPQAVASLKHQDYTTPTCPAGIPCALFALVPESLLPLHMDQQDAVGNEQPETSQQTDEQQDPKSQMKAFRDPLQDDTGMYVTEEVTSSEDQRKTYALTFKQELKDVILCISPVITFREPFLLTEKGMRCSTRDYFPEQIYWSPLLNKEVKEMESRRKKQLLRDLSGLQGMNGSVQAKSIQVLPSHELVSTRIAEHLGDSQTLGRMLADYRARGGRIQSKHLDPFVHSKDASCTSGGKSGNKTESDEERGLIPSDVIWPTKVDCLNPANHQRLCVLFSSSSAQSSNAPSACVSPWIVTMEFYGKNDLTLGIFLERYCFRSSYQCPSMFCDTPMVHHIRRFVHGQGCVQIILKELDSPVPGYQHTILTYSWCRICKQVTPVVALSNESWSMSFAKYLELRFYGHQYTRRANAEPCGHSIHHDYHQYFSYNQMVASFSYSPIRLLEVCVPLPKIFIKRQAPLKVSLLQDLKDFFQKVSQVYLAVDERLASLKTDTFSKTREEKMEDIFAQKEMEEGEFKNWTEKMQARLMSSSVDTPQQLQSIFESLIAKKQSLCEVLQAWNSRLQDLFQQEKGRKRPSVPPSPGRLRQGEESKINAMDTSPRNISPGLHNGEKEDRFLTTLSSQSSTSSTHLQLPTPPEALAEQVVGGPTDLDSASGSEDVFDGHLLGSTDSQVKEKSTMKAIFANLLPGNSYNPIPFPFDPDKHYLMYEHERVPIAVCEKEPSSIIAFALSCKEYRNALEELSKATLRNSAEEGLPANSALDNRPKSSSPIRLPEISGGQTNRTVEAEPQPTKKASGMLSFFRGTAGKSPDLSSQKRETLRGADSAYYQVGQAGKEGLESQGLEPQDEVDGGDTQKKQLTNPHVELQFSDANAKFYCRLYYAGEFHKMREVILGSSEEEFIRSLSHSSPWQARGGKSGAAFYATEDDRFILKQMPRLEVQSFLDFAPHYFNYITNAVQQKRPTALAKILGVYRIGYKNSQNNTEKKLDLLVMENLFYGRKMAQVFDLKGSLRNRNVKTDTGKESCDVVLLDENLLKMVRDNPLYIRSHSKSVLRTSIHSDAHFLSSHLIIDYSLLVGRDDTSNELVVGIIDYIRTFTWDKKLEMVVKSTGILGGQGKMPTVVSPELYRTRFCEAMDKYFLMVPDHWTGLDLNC
Procedure: CETSA was performed according to previously described protocols^71. Briefly, 7940B cells were seeded overnight and were subsequently treated with DMSO, ESK981 (1000 nM), or apilimod (1000 nM) for 2 hours. Cells were then harvested and made into single-cell suspensions of 1×10^6 cells each in […] of PBS containing protease inhibitors. The suspensions were then subjected to heating and cooling cycles (two cycles of 3-minute heating followed by 3-minute cooling at room temperature) using a thermal cycler. Cells were then lysed with three cycles of freeze-thawing in liquid nitrogen. Lysates were then analyzed using immunoblot analysis as previously described.

7940B cells [6] = assay: RNA-seq in 7940B cells; type: cell-based, mouse; conditions: eight-hour treatment
Procedure: RNA-seq libraries were prepared using 800 ng of total RNA. Ribosomal RNA were removed by enzymatic digestion of the specific probe-bound duplex rRNA, and then fragmented to around 200-300 bp with heat in fragmentation buffer (KAPA RNA Hyper+RiboErase HMR, Roche). Double-stranded cDNA was then synthesized by reverse transcription and underwent end-repair and ligation using New England Biolabs (NEB) adapters. Final library preparation was then prepared by amplification with 2×KAPA HiFI HotStart mix and NEB dual barcode. Library quality was measured on an Agilent 2100 Bioanalyzer (DNA 1000 chip) for concentration and product size. Paired-end libraries were sequenced with the Illumina NovaSeq, (2×151 nucleotide read length) with sequence coverage to 30-40 million paired reads. Reads were demultiplexed using Illumina's bcl2fastq conversion software v2.20. Transcripts were quantified by the alignment-free approach kallisto using index generated from mouse reference genome (mm10) and then summed to obtain gene level counts. Differential analysis was performed using limma-voom after TMM-normalization of gene level counts with calcNormFactors of edgeR. Genes with mean Transcripts Per Million (TPM) less than 1 in both control and treatment groups were considered as lowly expressed genes and excluded for differential analysis. […]

7940B cells [7] = assay: Targeted metabolomics in 7940B cells; type: cell-based, mouse; conditions: apilimod 100 nM, ESK981 1000 nM
Procedure: Polar metabolites from samples treated in biological triplicates were extracted using 80% v/v methanol/water and normalized using protein quantification from an additional sample from each condition. Equal estimated amounts of metabolites were dried using a SpeedVac vacuum concentrator, reconstituted in 50% v/v methanol in water, and analyzed by LC-MS as previously described. Data were analyzed as previously described with the Agilent Masshunter Workstation Quantitative Analysis for QQQ version 10.1 Build 10.1.733.0. No post-detection normalization was performed to avoid assuming linearity of signal. Heatmaps were generated using the Morpheus Matrix Visualization and analysis tool (https://software.broadinstitute.org/morpheus).

7940B cells [8] = assay: Targeted lipidomics in 7940B cells; type: cell-based, mouse; conditions: 24 hours; apilimod 100 nM, ESK981 1000 nM
Procedure: Sample preparation: Samples for lipidomics analyses were prepared according to the automatic dual-metabolite/lipid sample preparation workflow described in the Agilent application note 5994-5065EN. Briefly, 1 million cells were washed in PBS and lysed with 1:1 trifluoroethanol/water at room temperature. Lysates were transferred to microcentrifuged tubes, incubated for 10 minutes, and then centrifuged at 250×g for 30 seconds. Samples were then dehydrated under reduced pressure with no heat. […]
LC-MS/MS analysis: samples were analyzed on an Agilent 1290 Infinity II Bio LC ultra-high performed liquid chromatography (UPLC) system consisting of a high-pressure binary pump, multicolumn thermostat, and a temperature controlled multi-sampler. Samples were analyzed in randomized order on an Agilent 649C triple quadrupole mass spectrometer equipped with an Agilent Jet Stream Dual ESI ion source. Specifically, samples were analyzed with the reverse phase LC-MS/MS method reported in the Agilent application note 5994-3747EN. After acquisition, datasets were processed with MassHunter Quantitative analysis software and subsequently imported into Mass Profiler Professional (MPP) for chemometric analysis. […]

[9] = Ikonomov et al. 2019; cited from earlier work
FASN and ACACA = assay: qPCR of FASN and ACACA in PDAC cell lines treated with KRAS-MAPK inhibitors; type: cell-based; conditions: eight hours; PDAC cell lines with the relevant KRAS mutation
Procedure: Total RNA was isolated from cells using the miRNeasy kit (Qiagen), and cDNA was synthesized from 1000 ng of total RNA using Maxima First Strand cDNA Synthesis Kit for RT-qPCR (Thermo Fisher Scientific). Quantitative real-time PCR was performed in triplicates using standard SYBR green reagents and protocols on a QuantStudio 5 Real-Time PCR system (Applied Biosystems). The target mRNA expression was quantified using the ΔΔCt method and normalized to ACTB (human) or Actb (murine) expression. All primers were designed using Primer 3 (http://frodo.wi.mit.edu/primer3/) and synthesized by Integrated DNA Technologies (Coralville).

[10] = system: FASN and ACACA transcripts in AsPC1 cells; conditions: MRTX1133 100 nM, 24 hours; cited from earlier work
[11] = system: FASN and ACACA transcripts in AsPC1 cell-derived xenograft; conditions: 30 mg/kg MRTX1133 6 hours prior to tumor collection; cited from earlier work
[12] = 24-hour treatment, labeled doses
[13] = MRTX1133 300 nM or trametinib 25 nM, 24 hours

## CCN(CC)CCCC(C)Nc1ccnc2cc(Cl)ccc12 (centres unmarked) [chloroquine]
[1]; 24 hours
  basal autophagic flux: decreased
[1]
  autophagic flux induced by torin-1: decreased
[2]
  autophagic flux induced by torin-1: decreased
  basal autophagic flux: decreased
[3]
  increase in autophagic flux upon Kras OFF: attenuated
[4]
  half-maximal inhibitory concentrations (IC50), cell viability: much higher
7940B cells [5]
  OCR through 24 hours of treatment: significantly decreased OCR

## Cc1cccc(/C=N/Nc2cc(N3CCOCC3)nc(OCCc3ccccn3)n2)c1 [apilimod, N-[(E)-(3-methylphenyl)methylideneamino]-6-morpholin-4-yl-2-(2-pyridin-2-ylethoxy)pyrimidin-4-amine]
Cell surface MHC-I
  cell surface expression of MHC-I: increased cell surface expression of MHC-I
Mouse PIKfyve protein
  binding / stabilization of PIKfyve (CETSA): bind to mouse PIKfyve protein; also recorded: stabilization of PIKfyve
[1]; 24 hours
  basal autophagic flux: decreased
[1]
  autophagic flux induced by torin-1: decreased
[2]
  autophagic flux induced by torin-1: decreased
  basal autophagic flux: decreased
7940B cells [6]
  gene expression changes: concordant gene expression changes
  most upregulated pathways: cholesterol homeostasis, MTORC1 signaling, and fatty acid metabolism
7940B cells [7]; eight hours
  glycolytic metabolites: dramatic depletion of glycolytic metabolites
7940B cells [7]; three hours
  citrate level: decrease in citrate
7940B cells [8]
  cellular lipid landscape: induced significant changes in the cellular lipid landscape
[9]
  in vivo pharmacokinetics: poor in vivo pharmacokinetics

## C#Cc1c(F)ccc2cc(O)cc(-c3ncc4c(N5CC6CCC(C5)N6)nc(OC[C@@]56CCCN5C[C@H](F)C6)nc4c3F)c12 [MRTX1133]
[1]; [12]
  autophagy upon acute KRAS G12D inhibition: upregulate autophagy
[1]; [13]
  autophagic flux upon KRAS-MAPK inhibition: induced autophagic flux
[2]; [12]
  autophagy upon acute KRAS G12D inhibition: upregulate autophagy
[2]; [13]
  autophagic flux upon KRAS-MAPK inhibition: induced autophagic flux
FASN and ACACA
  transcription of FASN and ACACA: decreased transcription of FASN and ACACA
[10]
  FASN and ACACA transcripts in vitro: decreases FASN and ACACA transcripts
[11]
  FASN and ACACA transcripts in vivo: decreases FASN and ACACA transcripts
